Measured values published in patent US6362212B1, “Oxime derivative and bactericide containing the same as active ingredient” (Shionogi & Company, Ltd., priority 1994, dated 2002).

Columns and labels:
Type in all cases: in vivo
Sphaerotheca fuliginea = test: Controlling effect on Sphaerotheca fuliginea by foliage application (pot experiment); conditions: foliage spray on cucumber (cv. TSUKUBASHIROIBO) first leaves, infected area after 10 days in greenhouse at 20° C.
Procedure: The following Test Examples illustrate the effects of the fungicide of the present invention. (I. Controlling effects on various plant diseases by foliage application (pot experiment)) A test compound was dissolved in a small amount of N,N-dimethylformamide, and the solution was diluted to a given concentration with distilled water containing a spreader. Thus, a liquid sample to be tested was prepared. The liquid sample was sprayed to test plants, and 24 hours thereafter, pathogens were inoculated by the method described below. […] Seeds of cucumber ([…]) were sown in plastic cups (each 9 cm in diameter), followed by cultivation for 2 to 3 weeks. The liquid test sample in the form of a solution or suspension was sprayed on the surface of their first leaves. The pathogen was inoculated to the leaves by spraying a conidia suspension of Sphaerotheca fuliginea which had been cultured on the cucumber leaves. After the inoculation, the plants were kept in a greenhouse at 20° C. for 10 days. Then, the infected area on the leaf was observed, and the percent control was calculated.

[1] = system: Pseudoperonospora cubensis; test: Controlling effect on Pseudoperonospora cubensis by foliage application (pot experiment); conditions: foliage spray on cucumber (var. TSUKUBASHIROIBO) first leaves, lesion area after 10 days in moist chamber at 20° C.
Procedure: The following Test Examples illustrate the effects of the fungicide of the present invention. (I. Controlling effects on various plant diseases by foliage application (pot experiment)) A test compound was dissolved in a small amount of N,N-dimethylformamide, and the solution was diluted to a given concentration with distilled water containing a spreader. Thus, a liquid sample to be tested was prepared. The liquid sample was sprayed to test plants, and 24 hours thereafter, pathogens were inoculated by the method described below. […] The seeds of cucumber (var.: […]) were sown in plastic cups (each 9 cm in diameter), followed by cultivation for 2 to 3 weeks. The test compound in the form of a solution or suspension was sprayed to the surface of their first leaves, and a zoosporangia suspension of Pseudoperonospora cubensis cultured on cucumber leaves was dropped on the above leaf surfaces to inoculate the test plants with the pathogen. After the inoculation, the plants were kept in a moist chamber at 20° C. for 10 days. Then, the area of the lesions around the inoculum were observed and the percent control was calculated.

[2] = system: Erysiphe graminis f. sp. tritici; test: Controlling effect on Erysiphe graminis f. sp. tritici by foliage application (pot experiment); conditions: foliage spray on wheat (cv. NORIN No. 61) seedlings, infected area after 10 days in greenhouse at 20° C.
Procedure: The following Test Examples illustrate the effects of the fungicide of the present invention. (I. Controlling effects on various plant diseases by foliage application (pot experiment)) A test compound was dissolved in a small amount of N,N-dimethylformamide, and the solution was diluted to a given concentration with distilled water containing a spreader. Thus, a liquid sample to be tested was prepared. The liquid sample was sprayed to test plants, and 24 hours thereafter, pathogens were inoculated by the method described below. […] The seeds of wheat (cv.: NORIN No. 61) were sown in plastic cups (each 9 cm in diameter), followed by cultivation for 2 to 3 weeks. The test compound in the form of a solution or suspension was sprayed to the seedlings, and conidia of Erysiphe graminis f. sp. tritici cultured on wheat leaves were dropped on the test plants to inoculate the plants with the pathogen. After the inoculation, the plants were kept in a greenhouse at 20° C. for 10 days. The infected area on the leaf was observed, and the percent control was calculated.

Pyricularia oryzae = conditions: foliage spray on rice seedlings (cv. […]), number of lesions six days after the inoculation

Compound | Controlling effect on Sphaerotheca fuliginea by foliage application at 500 ppm (percent control) (Sphaerotheca fuliginea) | Controlling effect on Pseudoperonospora cubensis by foliage application at 500 ppm (percent control) [1] | Controlling effect on ErYsiphe graminis f. sp. tritici by foliage application at 500 ppm (percent control) [2] | Controlling effect on PYricularia orYzae by foliage application at 500 ppm (percent control) (Pyricularia oryzae)
CON=C(c1nnn(C)n1)c1ccccc1COc1ccc(C)cc1 [compound 2014] | 100 percent control | 100 percent control | – | –
CON=C(c1ccno1)c1ccccc1COc1ccccc1C (single isomer, unassigned) [512A] | 100 percent control | 100 percent control | 97 percent control | 90 percent control
CON=C(c1cc(C)no1)c1ccccc1COc1ccc(C)cc1 (single isomer, unassigned) [614B] | 97 percent control | 100 percent control | 70 percent control | 70 percent control
CON=C(c1cc(C)no1)c1ccccc1COc1cccc(Cl)c1 (single isomer, unassigned) [606B] | 100 percent control | 100 percent control | – | –
CON=C(c1ccon1)c1ccccc1COc1cccc(Cl)c1 (mixture of isomers) [compound 306] | 97 percent control | 100 percent control | 70 percent control | 70 percent control
CON=C(c1ccccc1COc1ccccc1Cl)c1nccn1C (single isomer, unassigned) [105A] | 100 percent control | 100 percent control | 70 percent control | 97 percent control
CCc1cccc(OCc2ccccc2C(=NOC)c2nnco2)c1 [compound 716] | 100 percent control | 100 percent control | 70 percent control | 70 percent control
CON=C(c1noc(C)n1)c1ccccc1COc1ccccc1Cl [compound 905] | 90 percent control | 99 percent control | – | –
COC(=O)C(C)N(C(=O)Cc1ccccc1)c1c(C)cccc1C (stereo not drawn) [Benalaxyl, reference compound] | – | 97 percent control | – | –
CON=C(c1cc(C)no1)c1ccccc1COc1ncc(C(F)(F)F)cc1Cl (single isomer, unassigned) [690B, 2-(3-chloro-5-trifluoromethyl-2-pyridyloxymethyl)phenyl 3-methylisoxazol-5-yl ketone O-methyloxime] | – | 100 percent control | – | –
CON=C(c1cc(C)on1)c1ccccc1COc1ccccc1C (mixture of isomers) [compound 412] | 100 percent control | 100 percent control | 70 percent control | –
CON=C(c1cc(C)no1)c1ccccc1COc1cccc(C)c1 (single isomer, unassigned) [613B] | 100 percent control | 100 percent control | 70 percent control | –
CON=C(c1ccccc1COc1cccc(C(C)C)c1)c1nccn1C (single isomer, unassigned) [146A] | 97 percent control | 100 percent control | – | 97 percent control
CON=C(c1nnco1)c1ccccc1COc1ccccc1Cl [compound 705] | 97 percent control | 100 percent control | – | 70 percent control
CON=C(c1cc(C)no1)c1ccccc1COc1ccccc1C (single isomer, unassigned) [612B] | 100 percent control | 100 percent control | 100 percent control | –
CON=C(c1cc(C)no1)c1ccccc1COc1cccc(Cl)c1 (single isomer, unassigned) [606A] | 100 percent control | 95 percent control | 70 percent control | –
CON=C(c1nnn(C)n1)c1ccccc1COc1ccc(-c2ccccc2)cc1 [compound 2044] | 97 percent control | 100 percent control | – | –
CON=C(c1cc(C)no1)c1ccccc1COc1ccc(Cl)cc1 (single isomer, unassigned) [607B] | 97 percent control | 97 percent control | 70 percent control | –
CON=C(c1ccno1)c1ccccc1COc1ccc(Cl)cc1C (single isomer, unassigned) [541A] | 100 percent control | 100 percent control | 90 percent control | –
CON=C(c1cc(C)no1)c1ccccc1CON=C(C)c1ccc(Cl)cc1 [Compound No. 2507] | 100 percent control | 100 percent control | – | –
CON=C(c1ncon1)c1ccccc1COc1ccc(-c2ccccc2)cc1 [compound 844] | 97 percent control | 100 percent control | – | –
CON=C(c1ccccc1COc1cccc(Cl)c1)c1nccn1C (single isomer, unassigned) [106B] | 97 percent control | 100 percent control | – | –
